Assay results taken from publication PMC8453901, “GLPG1205, a GPR84 Modulator: Safety, Pharmacokinetics, and Pharmacodynamics in Healthy Subjects” (Clinical Pharmacology in Drug Development, 2021).

Assays:
[1] = set-up: method as in PMID 32902984; details: mouse, rat, and dog; cited from earlier work
[2] = tested on: cytochrome P450 (CYP) 3A4 and CYP2C19; details: background statement, no reference given; cited from earlier work
[3] = set-up: method as in PMID 32902984; details: rats, up to 100 mg/kg/d; cited from earlier work
CYP2B6 = tested on: CYP2B6; set-up: method as in data on file at Galapagos; details: in vitro; ref data on file at Galapagos; cited from earlier work
[4] = set-up: method as in PMID 32902984; details: human and animals; cited from earlier work
[5] = Safety across both studies and all dose groups; format: in vivo, human; details: both studies
Protocol: (§1) Safety and tolerability were assessed on the basis of adverse events (AEs), which were monitored throughout both studies. Additional safety assessments included vital signs (including supine [and standing in study 2] heart rate, systolic and diastolic blood pressure, and oral body temperature), 12‐lead electrocardiogram (ECG), clinical laboratory tests (hematology, coagulation [study 2 only], serum/plasma chemistry, urinalysis, urine drug screen, serology, and alcohol breath test), and a comprehensive physical examination. In the SAD part of study 1, clinical laboratory tests, physical examination, and vital signs were assessed at the screening visit, at the time of dosing (0 hours after dose), 24 hours after dosing and at follow‐up (7 to 10 days after the final dose). Vital signs were additionally observed 2 hours after dosing, and the 12‐lead ECG was additionally completed at 1, 2, 6, 8, and 12 hours after dosing. In the MAD part of study 1, all additional safety assessments were performed at screening; days 1, 2, 8, 14, and 15; and at follow‐up. In study 2, additional safety assessments were performed at screening (between 21 and 2 days before the first study drug administration); days 1, 2, 5, 10, 14, 15, and 20 (clinical laboratory tests were not performed on day 20); at early discontinuation; and at follow‐up. For study 2, renal function tests (measurement of estimated creatinine clearance rate using the Cockcroft‐Gault equation) were also included in the clinical laboratory tests for safety assessment.
(§2) In both studies, the safety analysis was descriptive and focused on changes from baseline and treatment‐emergent findings.

CYP2C19 = tested on: CYP2C19; set-up: method as in data on file at Galapagos; details: in vitro; ref data on file at Galapagos; cited from earlier work
[6] = Safety and tolerability, study 2; format: in vivo, human
Protocol: as §1, §2

CYP2C9 = tested on: CYP2C9; set-up: method as in data on file at Galapagos, 8, 9; details: 100 mg once daily, healthy male subjects; ref data on file at Galapagos, 8, 9; cited from earlier work
[7] = part 1, 50 mg QD, 18–50 years (n = 6)
[8] = part 1, 50 mg QD, 65–74 years (n = 6)
[9] = part 1, 50 mg QD, ≥ 75 years (n = 6)
[10] = part 2, 250 mg loading dose + 50 mg QD, 65–74 years (n = 8)

SMILES: O=c1nc(OC[C@@H]2COCCO2)cc2n1CCc1cc(C#CC3CC3)ccc1-2 [GLPG1205, 9‐cyclopropylethynyl‐2‐((S)‐1‐[1,4]dioxan‐2‐ylmethoxy)‐6,7‐dihydropyrimido[6,1‐a]isoquinolin‐4‐one]
- oral absolute exposure [1]: ≥ 68%
- main enzymes involved in GLPG1205 metabolism [2]: cytochrome P450 (CYP) 3A4 and CYP2C19
- dose-proportionality of exposure [3]: increased dose‐proportionally
- inhibition of CYP2B6 (CYP2B6): weak inhibition
- plasma protein binding [4]: ≥ 92%
- ECG and vital signs [5]: no clinically significant trends
- deaths or serious AEs [5]: No deaths or serious AEs occurred
- subjects with headache (TEAE) ([5]; all GLPG1205 dose groups): 17 subjects
- subjects with nausea (TEAE) ([5]; all GLPG1205 dose groups): 12 subjects
- subjects with treatment-emergent AEs ([5]; all GLPG1205 dose groups): 44 subjects
- inhibition of CYP2C19 (CYP2C19): weak inhibition
- Any TEAE [6, 7]: 5 (83.3) number of subjects (%)
- Diarrhea (TEAE) [6, 7]: 0 number of subjects (%)
- Erectile dysfunction (TEAE) [6, 7]: 2 (33.3) number of subjects (%)
- Gastrointestinal disorders (TEAE) [6, 7]: 2 (33.3) number of subjects (%)
- Headache (TEAE) [6, 7]: 3 (50.0) number of subjects (%)
- Infections and infestations (TEAE) [6, 7]: 1 (16.7) number of subjects (%)
- Nasopharyngitis (TEAE) [6, 7]: 1 (16.7) number of subjects (%)
- Nausea (TEAE) [6, 7]: 2 (33.3) number of subjects (%)
- Nervous system disorders (TEAE) [6, 7]: 3 (50.0) number of subjects (%)
- Reproductive system and breast disorders (TEAE) [6, 7]: 2 (33.3) number of subjects (%)
- Vomiting (TEAE) [6, 7]: 0 number of subjects (%)
- Any TEAE [6, 8]: 5 (83.3) number of subjects (%)
- Diarrhea (TEAE) [6, 8]: 0 number of subjects (%)
- Erectile dysfunction (TEAE) [6, 8]: 0 number of subjects (%)
- Gastrointestinal disorders (TEAE) [6, 8]: 1 (16.7) number of subjects (%)
- Headache (TEAE) [6, 8]: 3 (50.0) number of subjects (%)
- Infections and infestations (TEAE) [6, 8]: 3 (50.0) number of subjects (%)
- Nasopharyngitis (TEAE) [6, 8]: 2 (33.3) number of subjects (%)
- Nausea (TEAE) [6, 8]: 0 number of subjects (%)
- Nervous system disorders (TEAE) [6, 8]: 4 (66.7) number of subjects (%)
- Reproductive system and breast disorders (TEAE) [6, 8]: 0 number of subjects (%)
- Vomiting (TEAE) [6, 8]: 0 number of subjects (%)
- Any TEAE [6, 9]: 3 (50.0) number of subjects (%)
- Diarrhea (TEAE) [6, 9]: 0 number of subjects (%)
- Erectile dysfunction (TEAE) [6, 9]: 0 number of subjects (%)
- Gastrointestinal disorders (TEAE) [6, 9]: 1 (16.7) number of subjects (%)
- Headache (TEAE) [6, 9]: 0 number of subjects (%)
- Infections and infestations (TEAE) [6, 9]: 0 number of subjects (%)
- Nasopharyngitis (TEAE) [6, 9]: 0 number of subjects (%)
- Nausea (TEAE) [6, 9]: 0 number of subjects (%)
- Nervous system disorders (TEAE) [6, 9]: 0 number of subjects (%)
- Polyuria (TEAE) [6, 9]: 2 (33.3) 2 (33.3) number of subjects (%)
- Renal and urinary disorders (TEAE) [6, 9]: 2 (33.3) 2 (33.3) number of subjects (%)
- Reproductive system and breast disorders (TEAE) [6, 9]: 0 number of subjects (%)
- Vomiting (TEAE) [6, 9]: 0 number of subjects (%)
- Any TEAE [6, 10]: 7 (87.5) number of subjects (%)
- Diarrhea (TEAE) [6, 10]: 1 (12.5) number of subjects (%)
- Erectile dysfunction (TEAE) [6, 10]: 0 number of subjects (%)
- Gastrointestinal disorders (TEAE) [6, 10]: 4 (50.0) number of subjects (%)
- Headache (TEAE) [6, 10]: 1 (12.5) number of subjects (%)
- Infections and infestations (TEAE) [6, 10]: 0 number of subjects (%)
- Nasopharyngitis (TEAE) [6, 10]: 0 number of subjects (%)
- Nausea (TEAE) [6, 10]: 3 (37.5) number of subjects (%)
- Nervous system disorders (TEAE) [6, 10]: 1 (12.5) number of subjects (%)
- Polyuria (TEAE) [6, 10]: 0 number of subjects (%)
- Renal and urinary disorders (TEAE) [6, 10]: 0 number of subjects (%)
- Reproductive system and breast disorders (TEAE) [6, 10]: 0 number of subjects (%)
- Vomiting (TEAE) [6, 10]: 2 (25.0) number of subjects (%)
- nausea of mild intensity ([6]; part 2, loading dose): 2 n
- nausea of moderate intensity ([6]; part 2, loading dose): 1 n
- effect on exposure of CYP2C9 (CYP2C9): did not affect the exposure
